In article PMC10402865, “Fragment-based design, synthesis and biological evaluation of theophylline derivatives as ATAD2 inhibitors in BT-549 cells” (Journal of Enzyme Inhibition and Medicinal Chemistry, 2023):

Legend:
ATAD2 = details: cited from earlier work
[1] = tested on: ATAD2, c-Myc, and p-c-Myc^Ser62 in BT-549 cells; test: Western blot of ATAD2, c-Myc and p-c-Myc Ser62; format: cell-based; details: BT-549 cells, 5, 10, 20 μM, 48h
Description: Cells were exposed to AM879, BAY-850 or compound 19f for the specified time intervals. Both adherent and floating cells were harvested and subsequently resuspended in a lysis buffer, followed by incubation at 4 °C for 1 h. Following centrifugation at 12,000 rpm for 20 min, the protein content of the supernatant was quantified using the BCA protein assay. Then protein were separated by 8–15% SDS-PAGE and transferred onto PVDF membranes. The membranes were blocked with blocking buffer and subjected to primary antibody incubation, followed by incubation with HRP-conjugated secondary antibody. Protein detection was achieved using ECL as the HRP substrate.

BT-549 cells = test: Cell viability (MTT) assay, anti-proliferative activity; format: cell-based; details: Homo sapiens, MTT, 24 h, mean ± SD
Description: BT-549 cells were seeded at a density of 5 × 10^4 cells/ml in a 96-well plate. Following a 24-h incubation period, the cells were exposed to various concentrations of different compounds for the specified durations. Cell viability was evaluated using an MTT assay.

[2] = molecular target: T1, ATAD2 recombinant bromodomain protein (Homo sapiens, UniProt Q6PL18); test: ATAD2 enzymatic assay by TR-FRET technology; format: binding; details: for IC50 / ATAD2 inhibitory activity, in words: TR-FRET; for IC50: mean ± SD, read-out: Kinase inhibitory activity (IC50, μM) ATAD2
T1 sequence (Q6PL18 980-1092 limits assumed): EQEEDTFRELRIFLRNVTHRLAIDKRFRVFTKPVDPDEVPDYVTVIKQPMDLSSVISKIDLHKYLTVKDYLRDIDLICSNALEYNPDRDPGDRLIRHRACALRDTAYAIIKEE
Description: The assay was performed by TR-FRET technology using recombinant bromodomain and BET Ligand[8]. The compounds were diluted with indicated folds in 5% DMSO in reaction buffer and 2 µl of the dilution was added to a 20 µl reaction so that the final concentration of DMSO is 0.5% in all of the reactions. The 20 µl reaction mixture consists of the ATAD2 recombinant bromodomain protein, the indicated amount of the inhibitor, ligand, and the reactive dyes. The reaction mixture was incubated for 3 h before reading the TR-FRET signal. Fluorescence signals for both the donor and acceptor dyes were measured using a Tecan Infinite M1000 plate reader. Binding experiments were performed in duplicate at each concentration and the data were analysed using GraphPad Prism.

Row | Compound | IC50 (ATAD2) [µM] | expression levels of c-Myc and p-c-Myc Ser62 (western blot) [1] | expression of ATAD2 (western blot) [1] | IC50 (BT-549 cells) [µM] | IC50 [2] [µM] | melting point [°C] | ATAD2 inhibitory activity, in words [2] | increase in ATAD2 activity compared to 19d [2]
1 | C[C@H]1CCN(S(=O)(=O)c2cc(NC(=O)CN3C(=O)N[C@@](C)(C4CC4)C3=O)ccc2Br)C1 [Compound 2] | 0.063 | – | – | – | – | – | – | –
2 | COc1cc(Cl)c(C(=O)N[C@@H](CN[C@H]2CC[C@@H](N)CC2)Cc2ccc(C#N)cc2)cc1-c1ccc(CN[C@H](C)c2ccc(C)cc2)o1 [BAY-850] | 0.02 | reduced c-Myc expression and ser62 the phosphorylation at ser62 in a dose-dependent manner | inhibited the expression of ATAD2 | 3.45 ± 0.59 | – | – | – | –
3 | CC(C)N1CCc2c(nnn2CC(=O)Nc2ccc(Br)c(S(=O)(=O)N3CC[C@H](C)C3)c2)C1 [GSK232] | 0.032 | – | – | – | – | – | – | –
4 | Cn1c(=O)c2ncn(CC(=O)Nc3cccc(C(=O)NC4CCCCC4)c3)c2n(C)c1=O [Compound 19g, N-cyclohexyl-3–(2-(1,3-dimethyl-2,6-dioxo-1,2,3,6-tetrahydro-9H-purin-9-yl)acetamido)benzamide] | – | – | – | 25.1 ± 4.27 | 17.3 ± 3.92 | 195 to 197 | – | –
5 | Cc1ccc(C(=O)N2CCSCC2)cc1NC(=O)Cn1cnc2c(=O)n(C)c(=O)n(C)c21 [Compound 15b, 2–(1,3-dimethyl-2,6-dioxo-1,2,3,6-tetrahydro-9H-purin-9-yl)-N-(2-methyl-5-(thiomorpholine-4-carbonyl)phenyl)acetamide] | – | – | – | > 30 | 19.3 ± 2.35 | 251 to 252 | weak inhibitory activities against ATAD2 | –
6 | Cn1c(=O)c2ncn(CC(=O)Nc3cccc(C(=O)N4CCOCC4)c3F)c2n(C)c1=O [Compound 15k, 2–(1,3-dimethyl-2,6-dioxo-1,2,3,6-tetrahydro-9H-purin-9-yl)-N-(2-fluoro-3-(morpholine-4-carbonyl)phenyl)acetamide] | – | – | – | > 30 | > 25 | 265 to 267 | – | –
7 | CO[C@H]1CNC[C@@H](OCC2CCC(F)(F)CC2)[C@@H]1Nc1ncc(-c2cncc(C)c2)c2cc(C)c(=O)[nH]c12 [GSK8814] | 0.059 | – | – | – | – | – | – | –
8 | Cc1ccc(C(=O)NC2CC2)cc1NC(=O)Cn1cnc2c(=O)n(C)c(=O)n(C)c21 [Compound 19b, N-cyclopropyl-3–(2-(1,3-dimethyl-2,6-dioxo-1,2,3,6-tetrahydro-9H-purin-9-yl)acetamido)-4-methylbenzamide] | – | – | – | 18.7 ± 3.06 | 9.06 ± 1.81 | 218 to 219 | – | –
9 | Cn1c(=O)c2ncn(CC(=O)Nc3cccc(C(=O)N4CCOCC4)c3)c2n(C)c1=O [Compound 15g, 2–(1,3-dimethyl-2,6-dioxo-1,2,3,6-tetrahydro-9H-purin-9-yl)-N-(3-(morpholine-4-carbonyl)phenyl)acetamide] | – | – | – | > 30 | 21.2 ± 3.17 | 266 to 268 | weak inhibition potency | –
10 | Cc1ccc(C(=O)NC2CCCC2)cc1NC(=O)Cn1cnc2c(=O)n(C)c(=O)n(C)c21 [Compound 19e, N-cyclopentyl-3–(2-(1,3-dimethyl-2,6-dioxo-1,2,3,6-tetrahydro-9H-purin-9-yl)acetamido)-4-methylbenzamide] | – | – | – | 11.3 ± 2.7 | 1.78 ± 0.39 | 211 to 213 | – | about a three-fold increase in activity
11 | COc1ccc(C(=O)NC2CC2)cc1NC(=O)Cn1cnc2c(=O)n(C)c(=O)n(C)c21 [Compound 19c, N-cyclopropyl-3–(2-(1,3-dimethyl-2,6-dioxo-1,2,3,6-tetrahydro-9H-purin-9-yl)acetamido)-4-methoxybenzamide] | – | – | – | 21.9 ± 4.03 | 9.19 ± 1.9 | 231 to 233 | – | –
12 | Cc1ccc(C(=O)N2CCS(=O)(=O)CC2)cc1NC(=O)Cn1cnc2c(=O)n(C)c(=O)n(C)c21 [Compound 15e, 2–(1,3-dimethyl-2,6-dioxo-1,2,3,6-tetrahydro-9H-purin-9-yl)-N-(5–(1,1-dioxidothiomorpholine-4-carbonyl)-2-methylphenyl)acetamide] | – | – | – | > 30 | > 25 | 231 to 233 | – | –
13 | Cn1c(=O)c2ncn(CC(=O)Nc3cccc(C(=O)NC4CCCCCC4)c3)c2n(C)c1=O [Compound 19j, N-cycloheptyl-3–(2-(1,3-dimethyl-2,6-dioxo-1,2,3,6-tetrahydro-9H-purin-9-yl)acetamido)benzamide] | – | – | – | > 30 | > 25 | 189 to 190 | – | –
14 | Cc1nnc2c(NC3CCN(CC(C)(C)F)CC3)cc(C(=O)N3C4Cc5ccccc5C3C(C(C)C)NC4=O)nn12 (stereo not drawn) [AZ4347] | 0.02 | – | – | – | – | – | – | –
15 | Cn1c(=O)c2ncn(CC(=O)Nc3cccc(C(=O)N4CCS(=O)(=O)CC4)c3)c2n(C)c1=O [Compound 15d, 2–(1,3-dimethyl-2,6-dioxo-1,2,3,6-tetrahydro-9H-purin-9-yl)-N-(3–(1,1-dioxidothiomorpholine-4-carbonyl)phenyl)acetamide] | – | – | – | > 30 | > 25 | 224 to 226 | – | –
16 | COc1ccc(C(=O)N2CCSCC2)cc1NC(=O)Cn1cnc2c(=O)n(C)c(=O)n(C)c21 [Compound 15c, 2–(1,3-dimethyl-2,6-dioxo-1,2,3,6-tetrahydro-9H-purin-9-yl)-N-(2-methoxy-5-(thiomorpholine-4-carbonyl)phenyl)acetamide] | – | – | – | > 30 | 14.8 ± 1.78 | 257 to 258 | weak inhibitory activities against ATAD2 | –
17 | COc1ccc(C(=O)NC2CCCCCC2)cc1NC(=O)Cn1cnc2c(=O)n(C)c(=O)n(C)c21 [Compound 19l, N-cycloheptyl-3–(2-(1,3-dimethyl-2,6-dioxo-1,2,3,6-tetrahydro-9H-purin-9-yl)acetamido)-4-methoxybenzamide] | – | – | – | > 30 | > 25 | 197 to 198 | – | –
